Our source for the Ki and inhibition values is US9181236B2, “2-spiro-substituted iminothiazines and their mono-and dioxides as bace inhibitors, compositions and their use” (Merck Sharp & Dohme Corp., priority 2011, dated 2015).

The target in test [1] is soluble human BACE1 catalytic domain (Homo sapiens (Human), UniProt P56817). Put plainly: BACE1 HTRF FRET Assay. The format is biochemical. To be noted: for Ki: Ki calculated from IC50 using the Cheng-Prusoff equation.
Test [2] has as its target purified human autoBACE-2 (Homo sapiens (Human), UniProt Q9Y5Z0). Briefly: BACE-2 Assay (BACE-HTRF assay). The format is biochemical. The following applies: Ki calculated from IC50 using the Cheng-Prusoff equation; read-out: BACE2 Ki. As for the experimental part:
Inhibitor IC50s at purified human autoBACE-2 are determined in a time-resolved endpoint proteolysis assay that measures hydrolysis of the QSY7-[…]-Eu-amide FRET peptide substrate (BACE-HTRF assay). […] DMSO is present at 5% final concentration in the assay. Following laser excitation of sample wells at 320 nm, the fluorescence signal at 620 nm is collected for 400 ms following a 50 μs delay on a RUBYstar HTRF plate reader (BMG Labtechnologies). Raw RFU data is normalized to maximum (1.0 nM BACE/DMSO) and minimum (no enzyme/DMSO) RFU values. […] The Ki values are calculated from the IC50 using the Cheng-Prusoff equation.

soluble human BACE1 catalytic domain, sequence (P56817 75-416): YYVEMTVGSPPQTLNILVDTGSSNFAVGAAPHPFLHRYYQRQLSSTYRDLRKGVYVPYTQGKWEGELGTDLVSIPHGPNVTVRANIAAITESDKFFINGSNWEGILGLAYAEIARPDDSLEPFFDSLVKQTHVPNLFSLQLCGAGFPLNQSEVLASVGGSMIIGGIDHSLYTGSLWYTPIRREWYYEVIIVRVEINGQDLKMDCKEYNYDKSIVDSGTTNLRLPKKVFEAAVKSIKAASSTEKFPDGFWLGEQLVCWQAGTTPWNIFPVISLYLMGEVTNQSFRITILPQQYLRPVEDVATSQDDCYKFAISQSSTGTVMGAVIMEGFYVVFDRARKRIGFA
purified human autoBACE-2, sequence (Q9Y5Z0 63-473 limits assumed): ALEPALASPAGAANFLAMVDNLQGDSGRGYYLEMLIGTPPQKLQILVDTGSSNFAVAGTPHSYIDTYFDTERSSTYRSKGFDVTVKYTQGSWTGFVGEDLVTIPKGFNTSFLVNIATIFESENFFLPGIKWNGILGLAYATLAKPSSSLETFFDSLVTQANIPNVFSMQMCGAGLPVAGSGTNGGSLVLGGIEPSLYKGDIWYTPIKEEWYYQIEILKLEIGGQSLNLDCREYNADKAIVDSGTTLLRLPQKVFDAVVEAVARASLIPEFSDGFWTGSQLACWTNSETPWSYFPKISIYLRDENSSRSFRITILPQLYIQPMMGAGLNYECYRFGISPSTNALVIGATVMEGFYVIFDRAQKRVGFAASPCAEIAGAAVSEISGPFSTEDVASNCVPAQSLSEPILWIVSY

What is called Ki is a measure of affinity in units of concentration, obtained from inhibition or displacement. On to `COc1cccc2cc(-c3cc(Cl)c([C@]4(C)CS(=O)(=O)C5(CCOCC5)C(=N)N4)s3)[nH]c12` [Example 48], for which the results for the Ki in test [1] and in test [2] were 19.8 nM and 2 nM, respectively.

For the molecule `C[C@@]1(c2sc(-c3cccc(C#N)c3)cc2Cl)CS(=O)(=O)C2(CCOCC2)C(=N)N1` [Example 49], the results for the Ki in test [1] and in test [2] were 113 nM and less than 50 nM, respectively.

Consider `C[C@@]1(c2sc(-c3cncc(C#N)c3)cc2Cl)CS(=O)(=O)C2(CCOCC2)C(=N)N1` [Example 50], for which the inhibition constant (Ki) is 130 nM in test [1] and less than 50 nM in test [2].

On to `C[C@@]1(c2sc(-c3cccc(C(F)(F)F)c3)cc2Cl)CS(=O)(=O)C2(CCOCC2)C(=N)N1` [Example 52], for which the Ki in test [1] is 147 nM; in test [2] it was less than 50 nM.

As for `C[C@@]1(c2sc(-c3cncc(C(F)(F)F)c3)cc2Cl)CS(=O)(=O)C2(CCOCC2)C(=N)N1` [Example 54], the Ki in test [1] was 157 nM; in test [2] it was less than 50 nM.

Turning to `COc1cc(C#N)cc(-c2cc(Cl)c([C@]3(C)CS(=O)(=O)C4(CCOCC4)C(=N)N3)s2)c1` [Example 57], the Ki is 161 nM in test [1] and less than 20 nM in test [2].

In the case of `COc1cccc2cc(-c3cc(Cl)c([C@]4(C)CS(=O)(=O)C5(CCC5)C(=N)N4)s3)[nH]c12` [Example 58], the Ki in test [1] was 7.7 nM; in test [2], 1 nM.

As to `C[C@@]1(c2sc(-c3cncc(C#N)c3)cc2Cl)CS(=O)(=O)C2(CCC2)C(=N)N1` [Example 59], the Ki in test [1] is 56 nM; in test [2] it was less than 20 nM.

For the molecule `C[C@@]1(c2sc(-c3cccc(C#N)c3)cc2Cl)CS(=O)(=O)C2(CCC2)C(=N)N1` [Example 61], the Ki in test [1] is 35.6 nM; in test [2], less than 20 nM.

As for `C[C@@]1(c2sc(-c3cccc(-c4nnco4)c3)cc2Cl)CS(=O)(=O)C2(CCC2)C(=N)N1` [Example 61a], the Ki in test [1] was 18.6 nM; in test [2], less than 50 nM.

On to `COc1cnc(C(=O)Nc2ccc(F)c([C@]3(C)CS(=O)(=O)[C@]4(CCOC4)C(=N)N3)c2)cn1` [Example 62], for which the values for the Ki in test [1] and in test [2] were 25.4 nM and less than 20 nM, respectively.

In the case of `COc1ccc(C(=O)Nc2ccc(F)c([C@]3(C)CS(=O)(=O)[C@]4(CCOC4)C(=N)N3)c2)nc1` [Example 62a], the figures for the Ki in test [1] and in test [2] were 30.3 nM and less than 20 nM, respectively.

As for `C[C@@]1(c2cc(NC(=O)c3ccc(F)cn3)ccc2F)CS(=O)(=O)[C@]2(CCOC2)C(=N)N1` [Example 62b], the Ki in test [1] was 24 nM; in test [2] it was 4.3 nM.

`C[C@@]1(c2cc(NC(=O)c3ccc(Cl)cn3)ccc2F)CS(=O)(=O)[C@]2(CCOC2)C(=N)N1` [Example 62c]: the Ki in test [1] was 8.1 nM; in test [2], 1.8 nM.

For the molecule `C[C@@]1(c2cc(NC(=O)c3ccc(C(F)(F)F)cn3)ccc2F)CS(=O)(=O)[C@]2(CCOC2)C(=N)N1` [Example 62d], the values for the Ki in test [1] and in test [2] were 17 nM and less than 50 nM, respectively.

On to `C[C@@]1(c2cc(NC(=O)c3ccc(C#N)cn3)ccc2F)CS(=O)(=O)[C@]2(CCOC2)C(=N)N1` [Example 62e], for which the Ki was 6.1 nM in test [1] and less than 20 nM in test [2].

`C[C@@]1(c2sc(-c3cncc(C#N)c3)cc2Cl)CS(=O)(=O)[C@]2(CCOC2)C(=N)N1` [Example 62f]: the values for the Ki in test [1] and in test [2] were 67.1 nM and less than 20 nM, respectively.

As for `COc1cccc2cc(-c3cc(Cl)c([C@]4(C)CS(=O)(=O)[C@]5(CCOC5)C(=N)N4)s3)[nH]c12` [Example 62g], the values for the Ki in test [1] and in test [2] were 6.3 nM and 0.9 nM, respectively.

Take `C[C@@]1(c2sc(-c3cncc(-c4ncco4)c3)cc2Cl)CS(=O)(=O)[C@]2(CCOC2)C(=N)N1` [Example 62h]: the Ki in test [1] was 56.7 nM; in test [2], 2.8 nM.

Take `C[C@@]1(c2sc(-c3ccnc(-c4ccoc4)c3)cc2Cl)CS(=O)(=O)[C@]2(CCOC2)C(=N)N1` [Example 62j]: the results for the Ki in test [1] and in test [2] were 296 nM and less than 50 nM, respectively.

Turning to `C[C@@]1(c2sc(-c3ccnc(-c4cccs4)c3)cc2Cl)CS(=O)(=O)[C@]2(CCOC2)C(=N)N1` [Example 62k], the Ki in test [1] was 305 nM; in test [2] it was less than 20 nM.

Consider `C[C@@]1(c2sc(-c3ccnc(-c4ccco4)c3)cc2Cl)CS(=O)(=O)[C@]2(CCOC2)C(=N)N1` [Example 62l], for which the Ki in test [1] was 45.3 nM; in test [2] it was 2.2 nM.

`C[C@@]1(c2sc(-c3ccnc(-c4ccccc4)c3)cc2Cl)CS(=O)(=O)[C@]2(CCOC2)C(=N)N1` [Example 62n]: the Ki is 313 nM in test [1] and less than 20 nM in test [2].

`COc1cnc(C(=O)Nc2ccc(F)c([C@]3(C)CS(=O)(=O)[C@@]4(CCOC4)C(=N)N3)c2)cn1` [Example 63]: the Ki is 41 nM in test [1] and less than 50 nM in test [2].

Consider `COc1ccc(C(=O)Nc2ccc(F)c([C@]3(C)CS(=O)(=O)[C@@]4(CCOC4)C(=N)N3)c2)nc1` [Example 63a], for which the figures for the Ki in test [1] and in test [2] were 24.2 nM and less than 20 nM, respectively.

With `C[C@@]1(c2cc(NC(=O)c3ccc(F)cn3)ccc2F)CS(=O)(=O)[C@@]2(CCOC2)C(=N)N1` [Example 63b], the Ki in test [1] is 18.7 nM; in test [2], 2.7 nM.

Turning to `C[C@@]1(c2cc(NC(=O)c3ccc(Cl)cn3)ccc2F)CS(=O)(=O)[C@@]2(CCOC2)C(=N)N1` [Example 63c], the Ki in test [1] was 5.9 nM; in test [2] it was 1.3 nM.

Regarding `C[C@@]1(c2cc(NC(=O)c3ccc(C#N)cn3)ccc2F)CS(=O)(=O)[C@@]2(CCOC2)C(=N)N1` [Example 63d], the Ki was 5.2 nM in test [1] and less than 20 nM in test [2].

For `C[C@@]1(c2sc(-c3cncc(C#N)c3)cc2Cl)CS(=O)(=O)[C@@]2(CCOC2)C(=N)N1` [Example 63e], the Ki is 192 nM in test [1] and less than 50 nM in test [2].

Turning to `COc1cccc2cc(-c3cc(Cl)c([C@]4(C)CS(=O)(=O)[C@@]5(CCOC5)C(=N)N4)s3)[nH]c12` [Example 63f], the Ki in test [1] was 14.2 nM; in test [2] it was 1.5 nM.

On to `C[C@@]1(c2sc(-c3cccc(-c4nnco4)c3)cc2Cl)CS(=O)(=O)[C@@]2(CCOC2)C(=N)N1` [Example 63g], for which the Ki was 20.2 nM in test [1] and less than 50 nM in test [2].

For the molecule `C[C@@]1(c2sc(-c3cncc(-c4ncco4)c3)cc2Cl)CS(=O)(=O)[C@@]2(CCOC2)C(=N)N1` [Example 63h], the Ki in test [1] is 107 nM; in test [2], less than 20 nM.

Take `C[C@@]1(c2sc(-c3ccnc(-c4ccsc4)c3)cc2Cl)CS(=O)(=O)[C@@]2(CCOC2)C(=N)N1` [Example 63n]: the Ki in test [1] was 428 nM; in test [2] it was less than 20 nM.

In the case of `COc1cccc2cc(-c3cc(Cl)c([C@]4(C)CS(=O)(=O)C5(CC5)C(=N)N4)s3)[nH]c12` [Example 64], the values for the Ki in test [1] and in test [2] were 10 nM and 1 nM, respectively.

For `C[C@@]1(c2sc(-c3cncc(C#N)c3)cc2Cl)CS(=O)(=O)C2(CC2)C(=N)N1` [Example 65], the inhibition constant (Ki) in test [1] is 108 nM; in test [2] it was less than 50 nM.

Regarding `C[C@@]1(c2sc(-c3cccc(-c4nnco4)c3)cc2Cl)CS(=O)(=O)C2(CC2)C(=N)N1` [Example 65a], the Ki in test [1] is 11 nM; in test [2] it was less than 50 nM.

Consider `C[C@@]1(c2cc(NC(=O)c3ccc(F)cn3)ccc2F)CS(=O)(=O)C2(CC(O)C2)C(=N)N1` (stereo partly shown) [Example 74], for which the figures for the Ki in test [1] and in test [2] were 21.8 nM and 3.8 nM, respectively.

Consider `C[C@@]1(c2cc(NC(=O)c3ccc(F)cn3)ccc2F)CS(=O)(=O)C2(CC(O)C2)C(=N)N1` (stereo partly shown) [Example 75], for which the Ki in test [1] is 12.5 nM; in test [2], 1.7 nM.

Consider `C[C@@]1(c2sc(C#CC3(c4ccccc4)CCCC3)cc2Cl)CS(=O)(=O)C2(CCC2)C(=N)N1` [Example 77], for which the Ki in test [1] is 2550 nM; in test [2] it was less than 50 nM.

In the case of `CC(C)(C)C#Cc1cc(Cl)c([C@]2(C)CS(=O)(=O)C3(CCC3)C(=N)N2)s1` [Example 77a], the Ki is 165 nM in test [1] and less than 20 nM in test [2].

Take `C[C@@]1(c2sc(C#CC3CCCC3)cc2Cl)CS(=O)(=O)C2(CCC2)C(=N)N1` [Example 77b]: the inhibition constant Ki in test [1] was 110 nM; in test [2], less than 50 nM.

With `C[C@@]1(c2sc(C#CCc3cc(F)c(F)c(F)c3)cc2Cl)CS(=O)(=O)C2(CCC2)C(=N)N1` [Example 78], the inhibition at 10 µM in test [1] (read-out: BACE1 % Inh. at 10 μM) is 17%. Also, the Ki in test [2] is less than 20 nM.

Turning to `CCc1cccc(NC(=O)c2cc(Cl)c([C@]3(C)CS(=O)(=O)C4(CC4)C(=N)N3)s2)n1` [Example 79], the inhibition constant (Ki) in test [1] was 88 nM; in test [2] it was less than 20 nM.

For the molecule `COc1cccc(NC(=O)c2cc(Cl)c([C@]3(C)CS(=O)(=O)C4(CC4)C(=N)N3)s2)n1` [Example 79a], the Ki in test [1] was 74 nM; in test [2], less than 20 nM.

As to `C[C@@]1(c2sc(C(=O)Nc3cccc(Cl)n3)cc2Cl)CS(=O)(=O)C2(CC2)C(=N)N1` [Example 79b], the Ki is 17 nM in test [1] and 4 nM in test [2].

On to `C[C@@]1(c2sc(C(=O)Nc3cccc(F)n3)cc2Cl)CS(=O)(=O)C2(CC2)C(=N)N1` [Example 79c], for which the Ki in test [1] was 227 nM; in test [2], less than 50 nM.

As for `Cc1cccc(NC(=O)c2cc(Cl)c([C@]3(C)CS(=O)(=O)C4(CC4)C(=N)N3)s2)n1` [Example 79d], the Ki in test [1] is 30 nM; in test [2], less than 20 nM.
